System: mice marrow cells
Protocol: The study objective was detection and quantitative estimate of cytogenetic (mutagenic) activity of pharmacologic substances in polychromatophil cells (PCC) of mammal marrow. The method is based on microscopic recording of cells with micronuclei.
The experiments were performed to 2 months old male and female F1 (CBAx C57BI6/J) cross-breed mice weighing 18-20 g. Each group included 6 animals. The animals were kept at 12 hours light pattern with free food and water access. Animal experiments for assessment of mutagenic properties of the PPNC with single and five-time dosing were conducted in compliance with official records. Three sessions of experiments were carried out with corresponding controls: therapeutic dose was tested on male animals with a single introduction; subtoxic dose was tested on male animals with a single introduction; therapeutic dose was tested on male animals with a single introduction; subtoxic dose was tested on male animals and female with five-time introduction. […] The PPNC dosing for assessment of mutagenic activity was calculated based on the maximum human recommended daily therapeutic dose (TD). […] In order to calculate an experiment dosing for mice, a conversion factor is recommended that takes into account a human or animal body surface area to weight ratio. In our study, it was 8.33. Therefore, the mice TD was approximately 8.33 x human TD (0.42 mg/kg).
As a subtoxic dose, 10mg/kg, the maximum possible in this experiment conditions dosing was used, as the substance was presented in 0.1 mg/ml concentration, and the normally used amount of substance for mice is 0.1 ml per 10 g.
Seven animal groups were formed: four experimental groups and three corresponding reference groups. The substance in the amount of 0.1 mg/kg was introduced five times at 24 hours interval to males and females. […]
Marrow cell preparations for micronuclei count were made by a standard method in compliance with common guidelines [20]. […] 2,000 polychromatophil cells from each animal were analyzed in encoded preparations. […]

Structure (SMILES): O=P1(N(CCCl)CCCl)NCCCO1 (stereo not drawn) [Cyclophosphamide, cyclophosphamide]
- frequency of micronucleus cells (20 mg/kg intraperitoneally, male mice, 3.16 % in reference): 62.1%
- increased frequency of micronucleus cells (20 mg/kg intraperitoneally, male mice, P<0.001): 19.6 times
- polychromatophilic to normochromatic erythrocytes ratio (20 mg/kg, compared to control P<0.005): found to shift to the latter
